Values quoted from earlier work in patent US20230364129A1, “TOPICAL COMPOSITIONS” (Prime Performance Research LLC, priority 2022, published 2023).

Assays:
[1] = carnosine 200 μmol/L; hydroxyl and/or peroxy-type radicals (Drafi, 2010)
[2] = tested on: human colorectal cancer cells; conditions: by suppressing NF-κB/STAT1 signaling (Lee, 2018)
[3] = tested on: NF-κB transcription factor in antigen presenting cells
[4] = tested on: hind paw oedema, synovitis and destruction of the articular cartilage; conditions: orally administered; several animal studies (Volpi, 2011)

effect on hyaluronan degradation [1]	Compound	cell cycle arrest and apoptosis [2]	activation of the NF-κB transcription factor ([3]; antigen presenting cells (Zhang, 2015))	TNF-α production ([3]; through the TLR/MyD88 pathway (Zhang, 2015))	hind paw oedema, synovitis and destruction of the articular cartilage [4]
protective action	NCCC(=O)N[C@@H](Cc1cnc[nH]1)C(=O)O [carnosine, beta-alanyl-L-histidine]	induces cell cycle arrest and apoptosis	–	–	–
–	Chondroitin sulfate [CS]	–	could activate	induce TNF-α production	significantly inhibited
